Assays:
[1] = assay type: physicochemical
[2] = assay type: physicochemical; conditions: 0.3 mM PEO-b-PDLLA, 10% w/w drug, dialysis in ddH2O, 37 °C, pH 7.4
[3] = system: MCF-7 human breast cancer cells; test: in vitro cytotoxicity, resazurin dye, 72 h; assay type: cell-based; conditions: MCF7, 72 h, read-out: MCF-7 IC50
[4] = system: PC-3 human prostate cells; test: in vitro cytotoxicity, resazurin dye, 72 h; assay type: cell-based; conditions: Prostate cell, read-out: PC-3 IC50
[5] = cited from earlier work
[6] = system: MCF-7; conditions: read-out: IC50 for MCF-7; reported by the National Cancer Institute; cited from earlier work
[7] = system: PC-3; conditions: read-out: IC50 for PC-3; reported by the National Cancer Institute; cited from earlier work
[8] = system: dogs; conditions: in dogs; cited from earlier work

C=CCNC1=C2C[C@@H](C)C[C@H](OC)[C@H](O)[C@@H](C)/C=C(\C)[C@H](OC(N)=O)[C@@H](OC)/C=C\C=C(/C)C(=O)NC(=CC1=O)C2=O [17-AAG, 17-allylamino-17-demethoxygeldanamycin]
17-AAG : PEO-b-PDLLA ([1]; 0.3 mM PEO-b-PDLLA micelle solution): 0.47 ± 0.068 mol:mol
Loading efficiency ([1]; 17-AAG loaded 1.4% divided by loading attempted 10% w/w): 14 ± 2.0%
increase in solubility over 17-AAG alone ([1]; in PEO-b-PDLLA (12:6 kDa) micelles versus ca. 10 μg/mL): ca. 150 fold
17-AAG loaded ([1]; weight 17-AAG solubilized versus total weight of carrier (17-AAG and PEO-b-PDLLA), 0.3 mM PEO-b-PDLLA): 0.014 ± 0.0020 mg/mg
release half-life [2]: similar
IC50 [3]: 0.022 ± 0.014 µM
IC50 [4]: 0.074 ± 0.014 µM
aqueous solubility [5]: ca. 0.01 mg/mL
IC50 [6]: 0.0126 µM
IC50 [7]: 0.0501 µM
maximum tolerated dose [8]: 100–200 mg/m^2/day

CO[C@H]1/C=C\C=C(/C)C(=O)NC2=CC(=O)C(NCCN(C)C)=C(C[C@@H](C)C[C@H](OC)[C@H](O)[C@@H](C)/C=C(\C)[C@@H]1OC(N)=O)C2=O [17-DMAG, 17-dimethylaminoethylamino-17-demethoxygeldanamycin]
maximum tolerated dose [8]: 8 mg/m^2/day
